Experimental data published in US8658638B2, “Mineralocorticoid receptor antagonist and methods of use” (priority 2009, dated 2014).

Biological target: T1, human androgen receptor (AR) (Homo sapiens, UniProt P10275)
T1 sequence (P10275 1-920): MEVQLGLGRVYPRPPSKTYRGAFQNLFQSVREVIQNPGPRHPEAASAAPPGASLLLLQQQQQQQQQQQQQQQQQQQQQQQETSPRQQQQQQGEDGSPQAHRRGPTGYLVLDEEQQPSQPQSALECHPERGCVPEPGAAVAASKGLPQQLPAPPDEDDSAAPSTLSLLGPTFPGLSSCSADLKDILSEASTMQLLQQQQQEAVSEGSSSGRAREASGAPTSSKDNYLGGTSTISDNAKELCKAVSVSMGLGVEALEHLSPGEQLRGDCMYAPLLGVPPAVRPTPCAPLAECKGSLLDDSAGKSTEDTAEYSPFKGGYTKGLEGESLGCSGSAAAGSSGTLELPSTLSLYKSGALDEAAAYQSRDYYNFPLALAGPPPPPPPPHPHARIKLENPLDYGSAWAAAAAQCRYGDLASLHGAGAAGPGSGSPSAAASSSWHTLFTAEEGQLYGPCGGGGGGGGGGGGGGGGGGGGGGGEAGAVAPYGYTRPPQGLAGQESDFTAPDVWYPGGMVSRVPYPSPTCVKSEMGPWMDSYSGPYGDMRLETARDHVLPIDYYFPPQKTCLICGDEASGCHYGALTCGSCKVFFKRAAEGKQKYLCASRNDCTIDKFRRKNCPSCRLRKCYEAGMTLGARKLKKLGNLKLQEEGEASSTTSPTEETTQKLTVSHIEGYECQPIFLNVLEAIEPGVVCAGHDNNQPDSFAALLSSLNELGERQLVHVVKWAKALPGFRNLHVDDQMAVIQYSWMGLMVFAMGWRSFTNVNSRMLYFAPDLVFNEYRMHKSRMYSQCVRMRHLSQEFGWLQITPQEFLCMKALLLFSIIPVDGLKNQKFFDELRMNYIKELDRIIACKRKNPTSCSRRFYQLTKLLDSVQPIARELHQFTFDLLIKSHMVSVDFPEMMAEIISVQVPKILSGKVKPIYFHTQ
Experiment: Nuclear hormone receptor panel screen (luciferase reporter, HEK293), AR
Format: cell-based
Excerpt: Aldosterone exerts it physiological effects through interaction with the mineralocorticoid receptor. Following cytoplasmic binding of aldosterone to MR, the ligand receptor complex translocates to the cell nucleus where it binds to hormone response elements on DNA to initiate expression of target genes. […] The solvents, reagents, and ligands employed in the functional assay are readily available from commercial sources, or can be prepared by one of ordinary skill in the art.
Human embryonic kidney HEK293 cells are transfected with steroid hormone receptor and reporter gene plasmids using a suitable transfection reagent such as Fugene™. […] After 24 hours incubation with test compounds, cells are lysed and luciferase activity is determined using standard techniques.
Data are fitted to a four parameter-fit logistic curve to determine EC50 values. […] IC50 values are determined similarly using antagonist mode assay data. In the antagonist mode, percent inhibitions are determined by comparing test compound activity in the presence of low concentration of agonist (0.08 nM aldosterone for MR, 0.25 nM dexamethasone for GR, 0.66 nM of methyltrienolone for AR, and 0.08 nM of promegestone for PR) to the response produced by the same low concentration of agonist in the absence of test compound.

Structure (SMILES): O=c1[nH]c2cc(/C=C3\c4ccccc4COc4cc(F)ccc43)ccc2n1[C@@H]1C[C@@H]2COCCN2C1 [Compound (I), 5-((E)-(3-fluorodibenzo[b,e]oxepin-11(6H)-ylidene)methyl)-1-((7R,8aR)-hexahydro-1H-pyrrolo[2,1-c][1,4]oxazin-7-yl)-1H-benzo[d]imidazol-2(3H)-one]
- EC50 (agonist mode): > 10 µM
- IC50 (antagonist mode, 0.66 nM methyltrienolone): > 10 µM
